# Measured values as given in PMC9101373, “Design of DNA Intercalators Based on 4-Carboranyl-1,8-Naphthalimides: Investigation of Their DNA-Binding Ability and Anticancer Activity” (International Journal of Molecular Sciences, 2022).
# Values joined by “and” are separate entries in the source; they are usually repeats but may differ in a detail not shown here. Identical values can stand only once.
# Tests used:
# calf thymus DNA (ct-DNA) = assay: Melting temperature (Tm) measurements of ct-DNA, thermal denaturation; assay type: binding; settings: r = [compound]/[ct-DNA] = 0.3; pH 7.0, 20 mM cacodylate buffer; Tm of ct-DNA alone 74 °C
# Procedure: The melting temperature (Tm) of DNA is defined as the temperature at which 50% of the DNA is in form of single strands forming randomly coiled structures. DNA melting is measured by the absorbance of UV light (260 nm) by the DNA solution, where the amount of UV light absorbed is proportional to the fraction of non-bonded base pairs. The majority of DNA-binding small molecules known thus far stabilize duplex DNA against heat denaturation. A high, drug-induced increase in the Tm of DNA is generally viewed as an excellent criterion to select DNA ligands and is a common feature of several anticancer drugs such as intercalators (a significant increase in Tm = 3–8 °C is observed for strong intercalation) and alkylators. The reverse situation (destabilization of DNA to facilitate its denaturation) may be an attractive option to identify therapeutic agents acting on the DNA structure.
# Our study conducted Tm measurement to estimate the impact of 1,8-naphthalimides bearing the carborane cluster on DNA stabilization (Table 1, Figures S249–S253, ESI).
# The measurements were performed by adding aliquots of DMSO stock solution of the tested compounds to the buffer solution (pH 7.0, 20 mM, cacodylate buffer, DMSO content of the final solution = 0.24–0.36%). The Tm curves were collected at r = 0.3 (r = [compound]/[ct-DNA]) to assure the dominant binding mode. Thermal melting curves were determined by following the absorption change at 260 nm as a function of temperature by using a GBC Cintra10 UV–vis spectrometer (Dandenong, Australia) equipped with a GBC Thermocell Peltier Power Supply (Dandenong, Australia) using a 1 cm path length cell. The absorbance of the samples was monitored at 260 nm from 30 to 90 °C (95 °C for compounds 54–61) with a heating rate of 1 °C/min. Tm values are the midpoints or the transition curves determined from the maximum of the first derivative. The ΔTm values were calculated by subtracting the Tm of the free nucleic acid from the Tm of the sample. Every Tm value reported in this study was average at least three measurements. The error in Tm was 0.5 °C.
# HepG2 cells [1] = assay: In vitro cytotoxic activity, MTT assay; assay type: cell-based, human; settings: 24 h treatment, read-out: IC50, compound concentration required to inhibit cell growth by 50%
# Procedure: The obtained 1,8-naphthalimide–carborane conjugates were investigated for their in vitro antitumor activity by examining their cytotoxic effects using the MTT tetrazolium dye assay against the human cancer cell line HepG2 established from hepatocellular carcinoma. IC50 refers to the drug concentration (µM) required to inhibit cell growth by 50%.
# The cytotoxic properties of the synthesized compounds were evaluated using the human hepatocellular carcinoma cell line HepG2 established from hepatocellular carcinoma. The HepG2 cell line was purchased from ECACC (Salisbury, UK). Cells were grown in EMEM medium (Corning®) supplemented with 10% heat-inactivated fetal bovine serum (FBS) (Corning®) and antibiotics (Corning®), at 37 °C in a 5% CO2 atmosphere. Upon reaching 80–90% confluency, cells were detached with the trypsin (Corning®) and transferred into 96-well microplates at a density of 12 × 10^3. After overnight incubation at 37 °C in a humidified atmosphere containing 5% CO2, the cells were treated for the next 24 h with compounds. The stock solution of each compound was prepared in DMSO at 10 mM. The cytotoxicity was evaluated by the MTT assay. […] Subsequently, the medium was aspirated and replaced with 3-(4,5-dimethylthiazol-2-yl)-2,5-diphenyltetrazolium bromide (MTT) dye solution (50 µL, 0.5 mg/mL). After 3 h incubation, the resulting MTT formazan crystals were dissolved in DMSO (100 µL). To ensure the complete dissolution of formazan, the plates were shaken on an orbital microplate shaker at 1000 rpm for 15 min (Thermoshaker NeoLab 7–0055, Bionovo, Legnica, Poland). The optical density of each well was then measured on a VICTOR Nivo multimode plate reader at a wavelength of 570 nm. Each experiment consisted of 6 replications of each concentration, and each experiment was repeated three times independently. The results were calculated as a percentage of control group viability. The IC50 values were determined using a non-linear regression from the plot of % viability against log dose of compounds by using GraphPad Prism 6.0 software (GraphPad, San Diego, CA, USA).
# HepG2 cells [2] = assay: Analysis of 8-oxo-dG in cellular DNA by HPLC-UV-ED; assay type: cell-based, human; settings: HepG2, 24 h; for [8-oxo-dG ± SD] × 10^6, 8-oxo-dG level in cellular DNA: concentration corresponding to total IC50, control 2.88 ± 0.17
# Procedure: We also estimated 8-oxo-dG levels in DNA since 2-deoxyguanosine is most susceptible to oxidation among nucleosides and might serve as an oxidative DNA damage marker within the cells. […] Both compounds generate much higher oxidative disturbance in DNA than mitonafide, resulting in approximately 4- and 6-fold more 8-oxo-dG residues, respectively.
# HepG2 cells (1 × 10^6) were seeded onto flasks (25 cm^2) and cultured for 16 h in the EMEM medium (Corning®) supplemented with 10% FBS (Corning®) and antibiotics (Sigma).Subsequently, the cells were treated for 24 h with the tested compounds at a concentration corresponding to their total IC50 values. Next, the cells were trypsinized, rinsed twice with PBS, and pelleted by centrifugation (200× g, 3 min). Total DNA was isolated from the treated cells and untreated control cells using a Genomic mini DNA isolation kit (A&A Biotechnology, Gdynia, Poland) according to the manufacturer′s protocol. The quality of the total DNA was assessed spectrophotometrically.
# DNA (1 μg) was dissolved in sodium acetate buffer (10 μL, 40 mM, pH 5.3) containing ZnCl2 (0.1 mM) and digested with nuclease P1 (3 μg). Samples were incubated for 3 h at 37 °C. Subsequently, Tris–HCl (2 μL, 1 M, pH 8.0), alkaline phosphatase (1 U) were added and incubated for 2 h at 37 °C. All DNA hydrolysates were ultrafiltered using cut-off 10,000 Da filter units.
# 8-Oxo-dG and dG in hydrolysates were determined using HPLC-UV followed by electrochemical detection and ED (Coulochem III Electrochemical Detector, ESA, Inc., Chelmsford, MA, USA). DNA hydrolysates were chromatographed isocratically using ammonium acetate (50 mM pH 5.3)/methanol (93:7, v/v). Detection of dG was performed at 254 nm. Detection of 8-oxo-dG was performed by the electrochemical detector: guard cell + 400 mV, detector 1: +130 mV (as a screening electrode), detector 2: + 350 mV (as a measuring electrode set to sensitivity of 500 nA/V). All results are expressed as the mean ± SD.
# To determine 8-oxo-dG levels, guanosine amount was necessary. The total number of 8-oxo-dG residues in the genome was calculated using the unique formula [54].
Substance,ΔTm ct-DNA (calf thymus DNA (ct-DNA)) [°C],IC50 (HepG2 cells [1]) [µM],"[8-oxo-dG ± SD] × 10^6, 8-oxo-dG level in cellular DNA (HepG2 cells [2]) [per 10^6 dG]",fold increase in number of 8-oxo-dG residues per 10^6 dG as compared to control (HepG2 cells [2]),fold more 8-oxo-dG residues than mitonafide (HepG2 cells [2])
"N-[2-(Pyrrolidin-1-yl)ethyl]-4-[(2-(2-(1,7-dicarba-closo-dodecaborane-1-yl)-ethylamino)ethyl)amino]-1,8-naphthalimide [Compound 57]",11.00,3.12 ± 0.04,57.54 ± 0.73,,
"N-[2-(Dimethylamino)ethyl]-4-[(6-(2-(1,2-dicarba-closo-dodecaborane-1-yl)-ethylamino)hexyl)amino]-1,8-naphthalimide [Compound 58]",11.00,3.87 ± 1.03,96.58 ± 0.56,,
"N-[2-(Dimethylamino)ethyl]-4-[(6-(2-(1,7-dicarba-closo-dodecaborane-1-yl)-ethylamino)hexyl)amino]-1,8-naphthalimide [Compound 59]",8.33,5.35 ± 1.36,81.64 ± 0.67,,
"N-[2-N-Pyrrolidinyl)ethyl]-4-[(6-(2-(1,7-dicarba-closo-dodecaborane-1-yl)-ethylamino)hexyl)amino]-1,8-naphthalimide [Compound 61]",12.33,4.79 ± 0.06,123.92 ± 2.59,> 43 fold,4 fold and ~6 fold
"N-[2-N-Pyrrolidinyl)ethyl]-4-[(6-(2-(1,2-dicarba-closo-dodecaborane-1-yl)-ethylamino)hexyl)amino]-1,8-naphthalimide [Compound 60]",7.67,30.9 ± 2.66,164.35 ± 6.39,over 57 fold,approximately 4 fold
"N-[2-(Dimethylamino)ethyl]-4-[(2-(2-(1,2-dicarba-closo-dodecaborane-1-yl)-ethylamino)ethyl)amino]-1,8-naphthalimide [Compound 54]",7.67,5.49 ± 0.38,43.17 ± 0.75,,
"N-[2-(Dimethylamino)ethyl]-4-[(2-(2-(1,7-dicarba-closo-dodecaborane-1-yl)-ethylamino)ethyl)amino]-1,8-naphthalimide [Compound 55]",9.67,3.43 ± 0.28,74.85 ± 1.38,,
"N-[2-(Pyrrolidin-1-yl)ethyl]-4-[(2-(2-(1,2-dicarba-closo-dodecaborane-1-yl)-ethylamino)ethyl)amino]-1,8-naphthalimide [Compound 56]",7.67,12.1 ± 1.03,52.31 ± 0.51,,
